The source of these data is patent publication US5554644A, “Tachykinin (NK2) antagonists” (Warner-Lambert Company, priority 1994, dated 1996).

For one experiment, the target named is T1, NK2 receptor (Mesocricetus auratus, UniProt P51144).
T1 construct: to hamster urinary bladder membranes; from tissue; host or cells: hamster urinary bladder membranes
T1 sequence (P51144 1-384): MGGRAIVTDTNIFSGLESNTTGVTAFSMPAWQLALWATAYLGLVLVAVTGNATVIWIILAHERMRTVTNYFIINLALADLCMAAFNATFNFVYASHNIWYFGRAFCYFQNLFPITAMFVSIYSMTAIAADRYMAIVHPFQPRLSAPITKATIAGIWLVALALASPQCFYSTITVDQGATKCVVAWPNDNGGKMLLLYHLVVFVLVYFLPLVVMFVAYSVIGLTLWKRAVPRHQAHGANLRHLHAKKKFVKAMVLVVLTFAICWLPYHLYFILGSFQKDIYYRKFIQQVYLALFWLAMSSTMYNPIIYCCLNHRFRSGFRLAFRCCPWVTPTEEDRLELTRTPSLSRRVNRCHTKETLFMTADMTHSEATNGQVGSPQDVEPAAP
Put plainly: NK2 receptor binding: binding of [^125 I]-iodohistidyl neurokinin A (0.1 nM) to hamster urinary bladder membranes. On the procedure: Some of the compounds of the invention were evaluated in tachykinin binding assays.
For the NK2 receptor-measurement of the binding of [^125 I]-iodohistidyl neurokinin A (0.1 nM) to hamster urinary bladder membranes. See Buck and Shatzer, Life Sci., 42:2701 (1988).

For the next experiment, the system named is NK1 receptor. As to conditions: cited from earlier work; for antagonists at the NK1 receptor: nonpeptide antagonists.
The test system of another experiment is NK2 receptors. As to conditions: cited from earlier work.

Broadly, the IC50 is the midpoint of a concentration-inhibition curve. A low value points to higher potency.

For `COc1cccc(COC(=O)NC(Cc2c[nH]c3ccccc23)C(=O)NC(C)(Cc2ccccc2)C(O)CCCO)c1OC` (single isomer, unassigned) [Compound XX, Carbamic acid, [2-[[2,5-dihydroxy-1-methyl-1-(phenylmethyl)pentyl]amino]-1-(1H-indol-3-ylmethyl)-2-oxoethyl]-, (2,3-dimethoxyphenyl)methyl ester], at NK2 receptor, the IC50 stood at 360 nM.

`COc1cccc(COC(=O)NC(Cc2c[nH]c3ccccc23)C(=O)NC(C)(Cc2ccccc2)C(O)CCCO)c1OC` (single isomer, unassigned) [Compound XXI, Carbamic acid, [2-[[2,5-dihydroxy-1-methyl-1-(phenylmethyl)pentyl]amino]-1-(1H-indol-3-ylmethyl)-2-oxoethyl]-, (2,3-dimethoxyphenyl)methyl ester]: the IC50 at NK2 receptor stood at 330 nM.

On to `COc1ccccc1CN[C@H]1C2CCN(CC2)[C@H]1C(c1ccccc1)c1ccccc1` [CP-96,345], for which the “antagonists at the NK1 receptor” value with NK1 receptor is recorded as “antagonists at the NK1 receptor”.

For `COc1cccc(COC(=O)N[C@@H](Cc2c[nH]c3ccccc23)C(=O)N[C@@](C)(Cc2ccccc2)C(=O)OCCO)c1OC` [Compound IV, L-Phenylalanine, N-[N-[[(2,3-dimethoxyphenyl)methoxy]carbonyl]L-tryptophyl]-α-methyl- , 2-hydroxyethyl ester], on NK2 receptor, the IC50 was determined as 150 nM.

Consider `COc1cccc(COC(=O)N[C@@H](Cc2c[nH]c3ccccc23)C(=O)N[C@@](C)(Cc2ccccc2)C(=O)N(C)CCO)c1OC` [Compound VII, L-Phenylalaninamide, N-[[(2,3-dimethoxyphenyl)methoxy]-carbonyl]-L-tryptophyl-N-(2-hydroxyethyl)-N,α-dimethyl], for which the 50% inhibitory concentration (IC50) at NK2 receptor is over 10000 nM.

`COc1cccc(COC(=O)N[C@@H](Cc2c[nH]c3ccccc23)C(=O)N[C@](C)(COCCO)Cc2ccccc2)c1OC` [Compound XII, Carbamic acid, [2-[[1-[(2-hydroxyethoxy)methyl]-1-methyl-2-phenylethyl]amino]-1-(1H-indol-3-ylmethyl)-2-oxoethyl]-, (2,3-dimethoxyphenyl)methyl ester, [S-(R*, R*)]-.] gave a half-maximal inhibitory concentration (IC50) on NK2 receptor of 250 nM.

Consider `COc1ccccc1CC(=N)N1C[C@@H]2C(=O)CCC(c3ccccc3)(c3ccccc3)[C@@H]2C1` [RP 67580], for which the “antagonists at the NK1 receptor” value with NK1 receptor was “antagonists at the NK1 receptor”.

Regarding `CC(=O)NC1(c2ccccc2)CCN(CC[C@H](CN(C)C(=O)c2ccccc2)c2ccc(Cl)c(Cl)c2)CC1` [SR 48969], the “affinity and selectivity for NK2 receptors” value in the experiment on NK2 receptors is “high affinity and selectivity for NK2 receptors”.

Consider `COc1cccc(COC(=O)N[C@@H](Cc2c[nH]c3ccccc23)C(=O)N[C@@](C)(Cc2ccccc2)C(=O)CCCO)c1OC` [XXVI, Carbamic acid, [2-[[5-hydroxy-1-methyl-2-oxo-1-(phenylmethyl)pentyl]amino]-1-(1H-indol-3-ylmethyl)-2-oxoethyl]-, (2,3-dimethoxyphenyl)methyl ester], for which the IC50 on NK2 receptor was determined as 22 nM.

Turning to substance-P, the “affinity for NK1 receptors” value in the experiment on NK1 receptor is on record as “highest affinity for NK1 receptors”.
